Consider five compounds from PMC9655119, “Sustained Activation of CLR/RAMP Receptors by Gel-Forming Agonists” (International Journal of Molecular Sciences, 2022).

Like-named read-outs stand apart in the source and are kept apart here.

What all share (format): cell-based
The target in experiment [1] is T1, human CLR/RAMP1 (Homo sapiens, UniProt O60894+Q16602).
T1 construct: host or cells: 1321N1 cells (cAMP Hunter cell line)
Description: CLR/RAMP1 receptor-activation assay (DiscoverX cAMP Hunter, HitHunter cAMP XS+). The conditions noted are these: for Emax: read-out: CLR/RAMP1 Max Activity. The method, then: (§1) The bioactivity of peptide analogs was studied using CLR/RAMP1, CLR/RAMP2, and CLR/RAMP3 assays by DiscoveRx (Fremont, CA, USA) in cells that stably express human CLR/RAMP1 (1321N1 cells), CLR/RAMP2 (CHO-K1 cells), or CLR/RAMP3 (CHO-K1 cells). The dose-dependent stimulatory effect of agonists was studied in duplicate, at 10 different concentrations. Determination of the half-maximal effective concentration (EC50) was performed using a 10-point dose-response curves. The starting concentration was 1.0 μM, and it was serially diluted 3-fold, in DMSO.
Cells were seeded in a total volume of 20 μL into 384-well microplates, and the activity was determined using the DiscoverX HitHunter cAMP XS + assay. Before the assay, media was aspirated from cells and replaced with 15 μL 2:1 HBSS/10 mM Hepes: cAMP XS + Ab reagent. Intermediate dilution of samples was performed to generate 4X sample in assay buffer, and 5 μL of the 4X sample was added to cells and incubated at 37°C. Vehicle concentration was 1%.
The chemiluminescent signal was read with a PerkinElmer instrument.

In experiment [2] the target is T2, human CLR/RAMP2 (Homo sapiens, UniProt O60895+Q16602).
T2 construct: host or cells: CHO-K1 cells (PathHunter β-Arrestin cell line)
T2 sequence (Q16602 23-461): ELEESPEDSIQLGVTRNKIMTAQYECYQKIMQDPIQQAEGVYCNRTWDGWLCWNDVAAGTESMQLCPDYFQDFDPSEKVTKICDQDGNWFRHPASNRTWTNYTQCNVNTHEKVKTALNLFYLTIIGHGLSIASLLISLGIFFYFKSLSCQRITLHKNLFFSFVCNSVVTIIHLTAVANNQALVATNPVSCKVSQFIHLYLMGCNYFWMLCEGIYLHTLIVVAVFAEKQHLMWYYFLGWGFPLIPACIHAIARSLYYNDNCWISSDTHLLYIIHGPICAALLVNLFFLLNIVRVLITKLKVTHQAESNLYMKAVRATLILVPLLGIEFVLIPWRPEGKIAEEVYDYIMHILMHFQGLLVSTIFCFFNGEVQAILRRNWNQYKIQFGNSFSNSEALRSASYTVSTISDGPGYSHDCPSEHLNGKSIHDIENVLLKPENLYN
T2 sequence (O60895 43-175): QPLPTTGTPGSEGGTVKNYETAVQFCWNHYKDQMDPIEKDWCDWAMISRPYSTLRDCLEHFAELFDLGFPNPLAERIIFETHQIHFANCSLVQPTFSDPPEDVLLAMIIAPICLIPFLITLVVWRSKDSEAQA
Description: CLR/RAMP2 receptor-activation assay (PathHunter β-Arrestin). Particulars: […], read-out: CLR/RAMP2 Max Activity. The method, then: as §1
In this assay, the CLR was fused in frame with a small enzyme donor fragment ProLink™ (PK). The receptor was co-expressed with a fusion protein of β-arrestin and an N-terminal deletion mutant of β-galactosidase (i.e., enzyme acceptor). Activation of the CLR/RAMP2 receptor stimulated the binding of β-arrestin to the PK-tagged receptor and led to an increase in enzyme activities which can then be measured with the PathHunter detection reagents. PathHunter cell lines were seeded in a total volume of 20 μL into 384-well microplates and incubated at 37 °C prior to the assay. Intermediate dilution of samples was performed to generate 5X samples in the assay buffer. A 5 μL aliquot of 5X sample was added to cells and incubated at 37 °C for 90 min. Vehicle concentration was 1%.

Experiment [3] has as its system primary human lymphatic microvascular endothelial (HLME) cells. Description: HLME cell proliferation (MTT assay). Particulars: 30, 100, 300 nmoles/L, medium with 2% FBS, 72 h, quintuplicate samples. The method, then: (§2) Primary human lymphatic microvascular endothelial cells (HLME cells; Cell Applications, Inc., San Diego, CA, USA) were maintained in a microvascular endothelial cell growth medium supplemented with 10% fetal bovine serum (FBS). […] After 72-h incubation, cell viability was determined with the 3-(4,5-dimethylthiazol-2-yl)-2,5-diphenyltetrazolium bromide (MTT) assay (Promega). To evaluate the effects on endothelial cell survival, HLME cells were treated with different concentrations of the agonist or controls (30, 100, and 300 nmoles/L) and cultured in a basal medium with 0.1% FBS for 72 h. Cell viability was then assayed with the MTT assay.
(Tetrazolium dyes change colour on reduction, which living cells bring about.)

Experiment [4] shares this test system. Description: HLME cell survival (MTT assay). The conditions noted are these: 30, 100, 300 nmoles/L, medium with 0.1% FBS, 72 h, quintuplicate samples. The method, then: as §2
Setting [5] is: percentage of positive control β-CGRP.

T1 sequence (Q16602 23-461): as the sequence (Q16602 23-461) above
T1 sequence (O60894 27-148): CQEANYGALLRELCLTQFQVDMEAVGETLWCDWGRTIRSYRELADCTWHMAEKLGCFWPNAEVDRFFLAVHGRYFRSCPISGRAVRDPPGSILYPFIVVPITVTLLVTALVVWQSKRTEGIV

As usually defined, the EC50 is the concentration that produces a half-maximal response. As to `CC[C@H](C)[C@H](NC(=O)[C@H](CCC(N)=O)NC(=O)[C@H](Cc1c[nH]cn1)NC(=O)[C@H](C)NC(=O)[C@H](CC(C)C)NC(=O)[C@H](CCCCN)NC(=O)[C@H](CCC(N)=O)NC(=O)[C@@H](NC(=O)[C@@H](NC(=O)[C@@H]1CSSC[C@H](NC(=O)CNC(=O)[C@@H](N)Cc2ccccc2)C(=O)N[C@@H](CCCNC(=N)N)C(=O)N[C@@H](Cc2ccccc2)C(=O)NCC(=O)N[C@@H]([C@@H](C)O)C(=O)N1)[C@@H](C)O)C(C)C)C(=O)N[C@@H](Cc1ccc(O)cc1)C(=O)N[C@@H](CCC(N)=O)C(=O)N[C@@H](Cc1ccccc1)C(=O)N[C@H](C(=O)N[C@@H](CC(=O)O)C(=O)N[C@@H](CCCCN)C(=O)N[C@@H](CC(=O)O)C(=O)N[C@@H](CCCCN)C(=O)N[C@@H](CC(=O)O)C(=O)N[C@@H](CC(N)=O)C(=O)N[C@H](C(=O)N[C@@H](C)C(=O)N1CCC[C@H]1C(=O)N[C@@H](CCCNC(=N)N)C(=O)N[C@@H](CO)C(=O)N[C@@H](CCCCN)C(=O)N[C@H](C(=O)N[C@@H](CO)C(=O)N1CCC[C@H]1C(=O)N[C@@H](CCC(N)=O)C(=O)NCC(=O)N[C@@H](Cc1ccc(O)cc1)C(N)=O)[C@@H](C)CC)C(C)C)[C@@H](C)O` [ADM14-52, reference compound], the EC50 in experiment [1] (1321N1 cells stably expressing human CLR/RAMP1, cAMP read-out, 10-point dose-response in duplicate, start 1.0 μM, 3-fold serial dilution in DMSO) was more than 100 nM. Also, the figures for the Emax in experiment [1] (setting [5]) and in experiment [2] (percentage of positive control ADM1-52) were 69% and 102%, respectively. Also, the “effect on HLME cell proliferation” value in experiment [3] was “minimal effects”. Further, in experiment [4], the “effect on HLME cell survival” value was “minimal effects”.

With `CC[C@H](C)[C@H](NC(=O)[C@H](CCC(N)=O)NC(=O)[C@H](Cc1c[nH]cn1)NC(=O)[C@H](C)NC(=O)[C@H](CC(C)C)NC(=O)[C@H](CCCCN)NC(=O)[C@H](CCC(N)=O)NC(=O)[C@@H](NC(=O)[C@@H](NC(=O)[C@@H]1CSSC[C@H](NC(=O)CNC(=O)[C@H](CCCCN)NC(C)=O)C(=O)N[C@@H](CCCNC(=N)N)C(=O)N[C@@H](Cc2ccccc2)C(=O)NCC(=O)N[C@@H]([C@@H](C)O)C(=O)N1)[C@@H](C)O)C(C)C)C(=O)N[C@@H](Cc1ccc(O)cc1)C(=O)N[C@@H](CCC(N)=O)C(=O)N[C@@H](Cc1ccccc1)C(=O)N[C@H](C(=O)N[C@@H](CC(=O)O)C(=O)N[C@@H](CCCCN)C(=O)N[C@@H](CC(=O)O)C(=O)N[C@@H](CCCCN)C(=O)N[C@@H](CC(=O)O)C(=O)N[C@@H](CC(N)=O)C(=O)N[C@@H](CO)C(=O)N[C@@H](C)C(=O)N1CCC[C@H]1C(=O)N[C@H](C(=O)N[C@@H](CC(=O)O)C(=O)N1CCC[C@H]1C(=O)N[C@@H](CO)C(=O)N[C@@H](CO)C(=O)N1CCC[C@H]1C(=O)N[C@@H](Cc1c[nH]cn1)C(=O)N[C@@H](CO)C(=O)N[C@@H](Cc1ccc(O)cc1)C(N)=O)C(C)C)[C@@H](C)O` [Analog B-6], the “effect on HLME cell survival” value in experiment [4] is reported as “minimal effects”.

With `CCCCCCCCCCCCCCCC(=O)NCCCC[C@H](NC(=O)COCCOCCN)C(=O)NCC(=O)N[C@H]1CSSC[C@@H](C(=O)N[C@H](C(=O)N[C@H](C(=O)N[C@@H](CCC(N)=O)C(=O)N[C@@H](CCCCN)C(=O)N[C@@H](CC(C)C)C(=O)N[C@@H](C)C(=O)N[C@@H](Cc2c[nH]cn2)C(=O)N[C@@H](CCC(N)=O)C(=O)N[C@H](C(=O)N[C@@H](Cc2ccc(O)cc2)C(=O)N[C@@H](CCC(N)=O)C(=O)N[C@@H](Cc2ccccc2)C(=O)N[C@H](C(=O)N[C@@H](CC(=O)O)C(=O)N[C@@H](CCCCN)C(=O)N[C@@H](CC(=O)O)C(=O)N[C@H](C(=O)N[C@@H](C)C(=O)N2CCC[C@H]2C(=O)N[C@@H](CCCNC(=N)N)C(=O)N[C@@H](CO)C(=O)N[C@@H](CCCCN)C(=O)N[C@H](C(=O)N[C@@H](CO)C(=O)N2CCC[C@H]2C(=O)N[C@@H](CCC(N)=O)C(=O)NCC(=O)N[C@@H](Cc2ccc(O)cc2)C(N)=O)[C@@H](C)CC)C(C)C)[C@@H](C)O)[C@@H](C)CC)C(C)C)[C@@H](C)O)NC(=O)[C@H]([C@@H](C)O)NC(=O)CNC(=O)[C@H](Cc2ccccc2)NC(=O)[C@H](CCCNC(=N)N)NC1=O` [Analog D-6], the Emax in experiment [1] stood at 56%; in experiment [2], 74%.

Turning to `CCCCCCCCCCCCCCCC(=O)NCCCC[C@H](NC(=O)COCCOCCN)C(=O)NCC(=O)N[C@H]1CSSC[C@@H](C(=O)N[C@H](C(=O)N[C@H](C(=O)N[C@@H](CCC(N)=O)C(=O)N[C@@H](CCCCN)C(=O)N[C@@H](CC(C)C)C(=O)N[C@@H](C)C(=O)N[C@@H](Cc2c[nH]cn2)C(=O)N[C@@H](CCC(N)=O)C(=O)N[C@H](C(=O)N[C@@H](Cc2ccc(O)cc2)C(=O)N[C@@H](CCC(N)=O)C(=O)N[C@@H](Cc2ccccc2)C(=O)N[C@H](C(=O)N[C@@H](CC(=O)O)C(=O)N[C@@H](CCCCN)C(=O)N[C@@H](CC(=O)O)C(=O)N[C@@H](CCCCN)C(=O)N[C@@H](CC(=O)O)C(=O)N[C@@H](CC(N)=O)C(=O)N[C@H](C(=O)N[C@@H](C)C(=O)N2CCC[C@H]2C(=O)N[C@@H](CCCNC(=N)N)C(=O)N[C@@H](CO)C(=O)N[C@@H](CCCCN)C(=O)N[C@H](C(=O)N[C@@H](CO)C(=O)N2CCC[C@H]2C(=O)N[C@@H](CCC(N)=O)C(=O)NCC(=O)N[C@@H](Cc2ccc(O)cc2)C(N)=O)[C@@H](C)CC)C(C)C)[C@@H](C)O)[C@@H](C)CC)C(C)C)[C@@H](C)O)NC(=O)[C@H]([C@@H](C)O)NC(=O)CNC(=O)[C@H](Cc2ccccc2)NC(=O)[C@H](CCCNC(=N)N)NC1=O` [Analog C-7], the figures for the Emax in experiment [1] and in experiment [2] were 70% and 147%, respectively.

Take `CC[C@H](C)[C@H](NC(=O)[C@H](CCC(N)=O)NC(=O)[C@H](Cc1c[nH]cn1)NC(=O)[C@H](C)NC(=O)[C@H](CC(C)C)NC(=O)[C@H](CCCCN)NC(=O)[C@H](CCC(N)=O)NC(=O)[C@@H](NC(=O)[C@@H](NC(=O)[C@@H]1CSSC[C@H](NC(=O)CNC(=O)[C@H](Cc2ccccc2)NC(=O)[C@H](CO)NC(=O)[C@H](CCCNC(=N)N)NC(=O)[C@H](CC(C)C)NC(=O)CNC(=O)[C@H](CCC(N)=O)NC(=O)[C@H](Cc2ccccc2)NC(=O)[C@H](CC(N)=O)NC(=O)[C@H](CC(N)=O)NC(=O)[C@H](CCSC)NC(=O)[C@H](CO)NC(=O)[C@H](CCC(N)=O)NC(=O)[C@H](CCCNC(=N)N)NC(=O)[C@@H](N)Cc2ccc(O)cc2)C(=O)N[C@@H](CCCNC(=N)N)C(=O)N[C@@H](Cc2ccccc2)C(=O)NCC(=O)N[C@@H]([C@@H](C)O)C(=O)N1)[C@@H](C)O)C(C)C)C(=O)N[C@@H](Cc1ccc(O)cc1)C(=O)N[C@@H](CCC(N)=O)C(=O)N[C@@H](Cc1ccccc1)C(=O)N[C@H](C(=O)N[C@@H](CC(=O)O)C(=O)N[C@@H](CCCCN)C(=O)N[C@@H](CC(=O)O)C(=O)N[C@@H](CCCCN)C(=O)N[C@@H](CC(=O)O)C(=O)N[C@@H](CC(N)=O)C(=O)N[C@H](C(=O)N[C@@H](C)C(=O)N1CCC[C@H]1C(=O)N[C@@H](CCCNC(=N)N)C(=O)N[C@@H](CO)C(=O)N[C@@H](CCCCN)C(=O)N[C@H](C(=O)N[C@@H](CO)C(=O)N1CCC[C@H]1C(=O)N[C@@H](CCC(N)=O)C(=O)NCC(=O)N[C@@H](Cc1ccc(O)cc1)C(N)=O)[C@@H](C)CC)C(C)C)[C@@H](C)O` [ADM1-52]: the Emax in experiment [1] (setting [5]) was determined as 63%. Further, the “effect on HLME cell proliferation” value in experiment [3] was “minimal effects”. Further, the “effect on HLME cell survival” value in experiment [4] was “minimal effects”.
